Test results from PMC4956724, “Assessing the reliability of uptake and elimination kinetics modelling approaches for estimating bioconcentration factors in the freshwater invertebrate, Gammarus pulex” (The Science of the Total Environment, 2016).
Where two headings read alike, the source gives them in different places.

How the values were obtained:
Gammarus pulex = assay: Toxicokinetic exposure (48 h uptake, 48 h depuration) of radio-labelled pharmaceuticals, first-order one-compartment model (OECD 305); details: for BCF, Simultaneous BCF: kinetic BCF (k1/k2); for BCF, Simultaneous BCF / k1 (uptake rate constant), Simultaneous BCF / k2 (elimination rate constant), Simultaneous BCF: simultaneous method; for BCF, Sequential BCF a / BCF, Sequential BCF b: kinetic BCF; for BCF, Sequential BCF a / k1, Sequential BCF a / k2, Sequential BCF a: sequential using curve fitting method; for BCF, Sequential BCF b / k1, Sequential BCF b / k2, Sequential BCF b: sequential using linear regression; for k1 (uptake rate constant), Simultaneous BCF / k2 (elimination rate constant), Simultaneous BCF: 1 μg·L^− 1 (diclofenac, ibuprofen 10 μg·L^− 1), 15 °C, pH 8.2
G. pulex [1] = details: in vivo
G. pulex [2] = details: in vivo; cited from earlier work
G. pulex exoskeleton = details: both, Gammarus pulex, in vivo, pH 8.2
[3] = Control wells without G. pulex: loss of compound by sorption to the walls of culture plates; format: physicochemical; details: control wells with exposure media only
G. pulex [4] = system: G. pulex; parameters: method as in Meredith-Williams et al., 2012; details: ref Meredith-Williams et al., 2012; cited from earlier work

With `COc1ccc(CC(C)NCC(O)c2ccc(O)c(NC=O)c2)cc1` (stereo not drawn) [Formoterol, formoterol] the “BCF, Simultaneous BCF” value (Gammarus pulex) was 14 L kg^− 1, the “BCF, Sequential BCF a” value (Gammarus pulex) was 18 L kg^− 1 and the “BCF, Sequential BCF b” value (Gammarus pulex) was 33 L kg^− 1. For the same molecule, the “k1, Sequential BCF a” value (Gammarus pulex) was 0.451 L kg^− 1 day^− 1, the “k2, Sequential BCF a” value (Gammarus pulex) was 0.025 day^− 1 and the “k1, Sequential BCF b” value (Gammarus pulex) was 0.357 L kg^− 1 day^− 1. The “k2, Sequential BCF b” value (Gammarus pulex) was 0.011 day^− 1, the “k1 (uptake rate constant), Simultaneous BCF” value (“k1 (uptake rate constant)” for short) (Gammarus pulex) was 0.408 L kg^− 1 day^− 1 and the “k2 (elimination rate constant), Simultaneous BCF” value (from here on “k2 (elimination rate constant)”) (Gammarus pulex) was 0.029 day^− 1.
In the case of `Clc1c(Cl)c(Cl)c(Cl)c(Cl)c1Cl` [Hexachlorobenzene], the “BCF, Sequential BCF” value (G. pulex [1]; Gammarus pulex) is reported as 4160 L kg^− 1, the “BCF, Simultaneous BCF” value (G. pulex [1]; Gammarus pulex) is reported as 2505 L kg^− 1 and the “k1, Sequential BCF” value (G. pulex [1]; Gammarus pulex) is reported as 631 L kg^− 1 day^− 1. The “k1, Simultaneous BCF” value (G. pulex [1]; Gammarus pulex) was 553 L kg^− 1 day^− 1, the “k2, Sequential BCF” value (G. pulex [1]; Gammarus pulex) was 0.152 day^− 1 and the “k2, Simultaneous BCF” value (G. pulex [1]; Gammarus pulex) was 0.221 day^− 1.
For `O=[N+]([O-])NC1=NCCN1Cc1ccc(Cl)nc1` [Imidacloprid], the BAF (G. pulex [2]) is given as 7, the “BCF, Sequential BCF” value (G. pulex [1]; Gammarus pulex) is given as 13 L kg^− 1 and the “BCF, Simultaneous BCF” value (G. pulex [1]; Gammarus pulex) is given as 7 L kg^− 1. For the same molecule, the “k1, Sequential BCF” value (G. pulex [1]; Gammarus pulex) was 2 L kg^− 1 day^− 1, the “k1, Simultaneous BCF” value (G. pulex [1]; Gammarus pulex) was 2 L kg^− 1 day^− 1 and the “k2, Sequential BCF” value (G. pulex [1]; Gammarus pulex) was 0.175 day^− 1. For the same molecule, the “k2, Simultaneous BCF” value (G. pulex [1]; Gammarus pulex) was 0.265 day^− 1.
For `CN(C)CCCN1c2ccccc2CCc2ccccc21` [Imipramine, imipramine], the “increase in BCF, sequential versus simultaneous method” value (Gammarus pulex; in vivo) was > 10 fold, the “BCF, Simultaneous BCF” value (Gammarus pulex) was 212 L kg^− 1 and the “BCF, Sequential BCF a” value (Gammarus pulex) was 3811 L kg^− 1. The “BCF, Sequential BCF b” value (Gammarus pulex) was 4533 L kg^− 1, the “BCF on average between curve fitting and linear regression approaches” value (Gammarus pulex; sequential method) was ~ 4200 and the “k1, Sequential BCF a” value (Gammarus pulex) was 1.361 L kg^− 1 day^− 1. For the same molecule, the “k1, Sequential BCF b” value (Gammarus pulex) was 1.360 L kg^− 1 day^− 1, the “k1 (uptake rate constant)” value (Gammarus pulex) was 1.408 L kg^− 1 day^− 1 and the “k2 (elimination rate constant)” value (Gammarus pulex) was 0.007 day^− 1. The “Maximum concentration sorbed to exoskeleton” value (G. pulex exoskeleton) was 3%, the “Mean Compound Mass per Animal” value (G. pulex exoskeleton) was 1921 pg and the “Total Mass Compound on exoskeleton” value (G. pulex exoskeleton) was 50 (n=2) pg. For the same molecule, the “loss by sorption to walls of exposure well” value ([3]; within 2 h) was 27% and the “loss by sorption to walls of exposure well” value ([3]; within 48 h) was 39%.
In the case of `CCOC(=O)CC(SP(=S)(OC)OC)C(=O)OCC` (stereo not drawn) [Malathion], the BAF (G. pulex [2]) is listed as 114, the “BCF, Sequential BCF” value (G. pulex [1]; Gammarus pulex) is listed as 212 L kg^− 1 and the “BCF, Simultaneous BCF” value (G. pulex [1]; Gammarus pulex) is listed as 120 L kg^− 1. For the same molecule, the “k1, Sequential BCF” value (G. pulex [1]; Gammarus pulex) was 80 L kg^− 1 day^− 1, the “k1, Simultaneous BCF” value (G. pulex [1]; Gammarus pulex) was 86 L kg^− 1 day^− 1 and the “k2, Sequential BCF” value (G. pulex [1]; Gammarus pulex) was 0.378 day^− 1. For the same molecule, the “k2, Simultaneous BCF” value (G. pulex [1]; Gammarus pulex) was 0.721 day^− 1.
With `COCCc1ccc(OCC(O)CNC(C)C)cc1` (stereo not drawn) [Metoprolol, metoprolol] the “Mean Compound Mass per Animal” value (G. pulex exoskeleton) was 74 pg and the “Total Mass Compound on exoskeleton” value (G. pulex exoskeleton) was 14 (n=2) pg.
In the case of `CC(C)NCC(O)COc1cccc2ccccc12` (stereo not drawn) [Propranolol, propranolol], the “Mean Compound Mass per Animal” value (G. pulex exoskeleton) is reported as 336 pg and the “Total Mass Compound on exoskeleton” value (G. pulex exoskeleton) is reported as 44 (n=1) pg.
In the case of `CNC(=C[N+](=O)[O-])NCCSCc1ccc(CN(C)C)o1` [Ranitidine, ranitidine], the “Mean Compound Mass per Animal” value (G. pulex exoskeleton) is reported as 238 pg and the “Total Mass Compound on exoskeleton” value (G. pulex exoskeleton) is reported as 58 (n=1) pg.
For `CCCCCCCCn1sc(Cl)c(Cl)c1=O` [Sea nine], the BAF (G. pulex [2]) is listed as 1732, the “BCF, Sequential BCF” value (G. pulex [1]) is listed as 7696 L kg^− 1 and the “BCF, Simultaneous BCF” value (G. pulex [1]) is listed as 2491 L kg^− 1. The “k1, Sequential BCF” value (G. pulex [1]) was 950 L kg^− 1 day^− 1, the “k1, Simultaneous BCF” value (G. pulex [1]) was 755 L kg^− 1 day^− 1 and the “k2, Sequential BCF” value (G. pulex [1]) was 0.123 day^− 1. The “k2, Simultaneous BCF” value (G. pulex [1]) was 0.303 day^− 1.
For `CC(C)(C)NCC(O)c1cc(O)cc(O)c1` (stereo not drawn) [Terbutaline, terbutaline], the “BCF, Simultaneous BCF” value (Gammarus pulex) was 12 L kg^− 1, the “BCF, Sequential BCF a” value (Gammarus pulex) was 22 L kg^− 1 and the “BCF, Sequential BCF b” value (Gammarus pulex) was 19 L kg^− 1. The “k1, Sequential BCF a” value (Gammarus pulex) was 0.135 L kg^− 1 day^− 1, the “k2, Sequential BCF a” value (Gammarus pulex) was 0.006 day^− 1 and the “k1, Sequential BCF b” value (Gammarus pulex) was 0.117 L kg^− 1 day^− 1. The “k2, Sequential BCF b” value (Gammarus pulex) was 0.006 day^− 1, the “k1 (uptake rate constant)” value (Gammarus pulex) was 0.136 L kg^− 1 day^− 1 and the “k2 (elimination rate constant)” value (Gammarus pulex) was 0.011 day^− 1.
In the case of `CNCCC(Oc1ccc(C(F)(F)F)cc1)c1ccccc1` (stereo not drawn) [fluoxetine], the BCF (G. pulex [4]) is listed as 185,900.
